row,melting point,Compound
1,138 °C,Cc1oc2c(C)c(Cc3ccccc3)c(C3CC(=O)NC(=O)C3)cc2c1C
2,164 to 165 °C,COc1ccc(C(=O)c2c(N)sc3c2CCN(Cc2ccccc2)C3)cc1
3,211 to 213 °C,Cc1ccccc1CC1CCN(C(=O)C(=O)Nc2ccc3c(c2)CC(=O)N3)CC1
4,115 to 116 °C,Cc1ccc(SCC(=O)c2cc(O)c(O)c([N+](=O)[O-])c2)cc1
5,161 to 164 °C,CC(C)(C)c1ccc(CNC(=S)NC(C)(C)c2ccc(NS(C)(=O)=O)cc2)cc1
6,162 °C,COc1ccc(-c2nnc(C(C)C)n2-c2ccc(OC)cc2)cc1
7,83 to 85 °C,CN(C)Cc1ccc(CSCCNC(=S)NC(=O)c2ccccc2)o1
8,257 to 260 °C,CC(=O)Oc1cccc2oc(C(=O)Nc3ccc(CC4SC(=O)NC4=O)cc3)cc(=O)c12 (stereo unspecified)
9,200 to 205 °C,COc1cc2ncnc(NC3=CC(=O)C(c4ccccc4)=CC3=O)c2cc1OC
10,264 to 265 °C,Cc1cc2c(cc1C)Sc1cscc1C(=O)N2
11,94.5 to 95.5 °C,O=C(O)CC(O)c1cccc(Cl)c1 (stereo unspecified)
12,194 to 195 °C,COc1ccc(OC)c(C=CC(=O)C2C(=O)OC(=O)C(C(C)=O)=C2O)c1 (stereo unspecified)
13,182 to 184 °C,CCCc1nn(Cc2ccccc2)c(C(N)=O)c1NC(=O)c1cc(S(=O)(=O)N2CCN(C)CC2)ccc1OCC
14,109 to 111 °C,COCOc1c(NC(=O)N(CCCCCC(=O)O)c2ccccc2)cc(OC)cc1C(C)(C)C
15,160 to 164 °C,COc1cccc2c1Oc1sc(C)cc1C(=O)N2
16,151 °C,CC(=O)c1cc(O)c(C)c(C)c1O
17,151 to 152 °C,O=c1nc(-c2cccc(CSc3ccccn3)n2)sc2ccccc12
18,150 °C,O=C([C@@H](Cc1ccc(Cl)cc1)NC1CCC(O)(c2ccc(F)cc2)CC1)N1CCC(Cn2cncn2)(C2CCCCC2)CC1 (stereo partly specified)
19,132 to 135 °C,CC1=C(c2cccc(Cl)c2)n2ncc(C#N)c2N(C(=O)CCl)C1
20,141 to 142 °C,Cc1ccc(S(=O)(=O)OCCOCn2cc(F)c(=O)[nH]c2=O)cc1
21,207 to 209 °C,Nc1ncnc2c1ncn2Cc1oc2ccc(Br)cc2c(=O)c1-c1ccccc1
22,221 to 223 °C,COC(=O)c1ccccc1C=CC(=O)C=Cc1ccccc1C(=O)OC
23,143 to 144 °C,CCCCSc1cc(C(=O)O)cc(N)c1-c1ccccc1
24,96 to 97 °C,CC(C)OC(=O)Cc1nc(-c2ccc(Cl)cc2)oc1-c1ccco1
25,136 °C,COc1ccc(C)cc1NC(=O)Nc1ccc(N2CCN(C(N)=O)CC2)cc1

row,melting point,Compound
1,205 to 208 °C,Cn1c(Cl)c(Cl)c2cnc(NC(=O)c3ccc([C@](C)(O)CO)cc3)cc21
2,119 to 122 °C,CC(=O)NC[C@H]1CN(c2ccc(C3=CCSCC3)c(F)c2)C(=O)O1
3,194 °C,O=C(O)CCN1C(=O)c2cccc(NC(=O)c3ccc(Cl)s3)c2C1=O
4,136 to 137 °C,CCCNc1nc(C#N)c(C#N)nc1-c1ccccc1
5,148 to 150 °C,COc1ccc(/C=C/S(=O)(=O)CS(=O)(=O)/C=C/c2ccc(O)c(OC)c2)cc1O
6,204 to 205 °C,Cc1c(-c2ccncc2)[nH]c(-c2ccncc2)c1C(=O)OCc1ccccc1
7,> 300 °C,CNC(=O)Nc1cccc2c1C(=O)c1c-2n[nH]c1-c1ccc(OC)cc1
8,114 to 115 °C,CCCN1N=C2C(=Cc3ccccc3)COCC2C1c1ccccc1 (stereo unspecified)
9,185 to 187 °C,CCC(=O)NCC=C1CCc2ccc3nn(C)cc3c21
10,168 to 171 °C,S=c1[nH]cnn1C[C@]1(c2ccccc2)O[C@@H]1c1ccc(Cl)c(Cl)c1Cl (relative stereo)
11,232 to 233 °C,ClCc1c(Br)c(Br)c(CCl)c(Br)c1Br
12,157 to 159 °C,O=C(OCCOc1ccc2ncnn2n1)C1CN(C(c2ccccc2)c2ccccc2)CCN1 (stereo unspecified)
13,73 to 74 °C,CCCc1c(C(=O)OCC)[nH]c(CC)c1C
14,155 to 156 °C,Cc1c(NC(=O)CC(C)(C)C)c(C)c2c(c1-c1cccs1)OCC2c1ccc(C(C)C)cc1 (stereo unspecified)
15,138 to 140 °C,O=C(CCCCC(=O)N1CCN(c2cnccn2)CC1)c1ccc(Cl)cc1
16,114 to 117 °C,C=CCN1c2ccccc2-c2noc3c2C1CCC3 (stereo unspecified)
17,104 to 106 °C,CCOC(=O)c1ccc(Cn2cnc3cccnc32)cc1
18,74.9 °C,O=[N+]([O-])c1cc(C(F)(F)F)ccc1NCCO
19,235 °C,CCOC(=O)Nc1nc2cc(-c3cccnc3)cc(-c3ccccn3)c2s1
20,105 to 108 °C,N#Cc1cscc1Nc1c(Cl)cccc1Cl
21,64 °C,CSC(=S)C1(c2ccccn2)CCCS1 (stereo unspecified)
22,233 to 234 °C,CCn1ncc2c(NCc3ccc(C#N)cc3)c3ccccc3nc21
23,197 °C,COc1cc(O)c(C(=O)C=Cc2ccc(N(C)C)cc2)c(OC)c1
24,142 to 143 °C,CCCCCCCCCC(=O)c1ccc(O)c(C(=O)Nc2ccc([N+](=O)[O-])cc2)c1
25,94.6 to 98.8 °C,Cc1ccc(C)n1S(=O)(=O)c1ccc(CC(=O)c2ccccc2)cc1

row,melting point,Compound
1,172 to 175 °C,O=C(NCc1ccccc1)c1ccc(OC2CCCC2)c2oc3ccccc3c12
2,130 °C,CC(=O)N1CC(=O)N(CCc2ccccc2)C(=O)C1
3,101 to 103 °C,Cc1cc(O)c(C)c(C)c1OCc1ccccc1
4,228 °C,C=CS(=O)(=O)c1ccc(C(=O)O)cc1
5,225 to 228 °C,CSC1NC(=O)N(c2cccc(C(F)(F)F)c2)C(=O)N1
6,252 to 254 °C,O=C(O)Cc1cccc2c(-c3ccc([N+](=O)[O-])cc3)nccc12
7,167 to 172 °C,CC(=O)Nc1c(C)cc(F)cc1[N+](=O)[O-]
8,18 °C,CC1(C)OCC(CCBr)CO1
9,140 to 142 °C,COc1ccc(C=Cc2nnc(C(Cl)(Cl)Cl)o2)cc1
10,73 to 81 °C,CCOC(=O)C=C(C)Nc1ccccc1N
11,85 to 86 °C,CC(=O)OC(C)c1ccc(C=C(C)c2ccc3c(c2)C(C)(C)CCC3(C)C)cc1 (stereo unspecified)
12,101 °C,COc1cc(C(=O)c2ccc(C(F)(F)F)cc2)ccc1OCc1ccccc1
13,113 to 116 °C,Cc1ccc2c(c1)COC21CCN(CCCCCCN2CCC3(CC2)OCc2cc(C)ccc23)CC1
14,135 to 140 °C,N#Cc1ccc(-c2ccc(C(=O)NCCCCN3CCC(c4ccc5ccccc5c4O)CC3)cc2)cc1
15,133 to 136 °C,CC(C)(CCn1cnc(-c2ccccc2)c1)NCC(O)c1ccc(O)c(NS(C)(=O)=O)c1 (stereo unspecified)
16,168 to 170 °C,COc1cc(C(=O)O)ccc1Cc1cn(C(C)C)c2ccc(CCCC(=O)N(C)C)cc12
17,39 to 41 °C,O=C(OCc1ccccc1)c1cc(Cl)nc(Cl)c1
18,80 to 89 °C,N#Cc1ccc(CNC(=O)C2Cc3ccccc3N2S(=O)(=O)c2ccc(-c3cccc(C(F)(F)F)c3)cc2)cc1 (stereo unspecified)
19,192 °C,CS(=O)(=O)C(=C1CN(C(c2ccccc2)c2ccccc2)C1)c1ccc(Cl)cc1
20,65 to 67 °C,FC(F)=C(F)CC(=S)Nc1ccccc1
21,138 to 140 °C,CC(C)(C)CNc1cc(N2CCNCC2)nc(NCC(C)(C)C)n1
22,92 to 94 °C,CC(C)(C)OC(=O)N1C[C@@H]([C@H](O)CO)CC1=O
23,94 to 99 °C,COc1ccc2[nH]c(Sc3ccc(C=O)o3)nc2c1
24,146 to 147 °C,Cc1cc(N(C)C(N)=O)no1
25,120 to 122 °C,CC(=O)NCC1CN(c2ccc(-c3cccc(CF)c3)c(F)c2)C(=O)O1 (stereo unspecified)

row,melting point,Compound
1,117 to 120 °C,O=C(C=Cc1ccc(F)cc1)c1cccs1
2,114 to 115 °C,Cc1ccc(S(=O)(=O)OCC2C(CC(C)C3CCC4C(O)CCCC34C)N(C)OC2(C)C)cc1 (stereo unspecified)
3,135 to 138 °C,CC1=C(C)C(=O)N(OC(=S)N(C)C)C1=O
4,46 to 47 °C,CCCCC/C(=C\C=C\C(=O)Oc1ccc([N+](=O)[O-])cc1)c1ccc(OC)cc1
5,245 to 246 °C,CN1CCN(c2ccc(N/C=C3\CN=Cc4ccccc43)cc2)CC1
6,259 to 261 °C,O=P1(c2ccc(-c3ccccc3)cc2)c2ccccc2CN1c1ccccc1 (stereo unspecified)
7,169 to 170 °C,Cc1c2n(c(=O)c3c(O)cccc13)CCCS2=O (stereo unspecified)
8,85 to 87 °C,COc1ccc(OC2CCN(C)C2)c(C(N)=O)c1 (stereo unspecified)
9,165 to 166 °C,O=[N+]([O-])c1cc(C(c2ccc(Nc3ccccc3)c([N+](=O)[O-])c2)(C(F)(F)F)C(F)(F)F)ccc1Nc1ccccc1
10,304 °C,Cc1cc2nc(O)c(-c3c(F)cc(F)cc3F)c(O)n2n1
11,74 to 76 °C,CN(C)C(=O)c1ccccc1[N+](=O)[O-]
12,194 to 196 °C,CNC(=O)N1CCC(=C2c3ccc(Cl)cc3CCc3cccnc32)CC1
13,157 to 159 °C,Cc1nn(-c2ccccn2)c2nc3ccccc3c(C)c12
14,55 to 60 °C,COc1ccc(C=CC(=O)c2c(OC)cc(OC)cc2OC(=O)c2cccnc2)cc1
15,138 to 141 °C,Cn1c(Cl)nc2cc(F)ccc21
16,87 to 88 °C,IC=CC(CC1CCCC1)OC(c1ccccc1)(c1ccccc1)c1ccccc1 (stereo unspecified)
17,63.5 to 64 °C,CC(C)(C)OC(=O)NC(CCOP(=O)(Oc1ccccc1)Oc1ccccc1)C(=O)OCc1ccccc1 (racemic)
18,153 °C,CC(O)C=Cc1ccc2c(c1)Cc1ccccc1-2 (stereo unspecified)
19,210 to 213 °C,CNc1ncnc(NCc2c(F)cccc2Cl)c1N
20,163 to 165 °C,CCOc1c(C)c(N2CCN(c3ccc(F)cc3)CC2)c(C)c2c1OC(C)(C)C2
21,171 to 173 °C,O=C(NC(=O)c1nnn(Cc2ccccc2)c1NC(=O)c1ccccc1)c1ccccc1
22,126 to 127 °C,CN(C)CCNC(=O)Cc1ccc(NC(=O)OCc2ccccc2)cc1

row,Compound,melting point
1,NCCN1CCC(c2n[nH]c3cc(F)ccc23)CC1,125 to 128 °C
2,COc1ccc(Nc2nc(NC(C)C)nc(N(C)C3CCNCC3)n2)cc1Cl,129 °C
3,CCCCOc1ccccc1C(O)CNC(C)Cc1ccc(OC)c(OC)c1 (stereo unspecified),119 to 121 °C
4,CC(Cc1ccc(OCCCCO)cc1)NCC(O)c1cccc(C(F)(F)F)c1 (stereo unspecified),69 to 76 °C

# Reference: a melting point compilation (Tetko et al.; mined from patent text by program, amines drawn as free bases though some values may be those of a salt)
